A short description of data set [1]: Gravimetric solubility in water. The class given is physicochemical. The conditions noted are these: thermodynamic from solid; gravimetric, water. As for the experimental part: The solubility in water of the salts was measured using a gravimetric solubility protocol.
1 ml of water was charged into crystallisation tubes. The solid was weighed into a tared glass vial, added in portions to the solutions and the vial weighed after each addition until a hazy solution was observed. The amount in mg was then calculated to give the solubility in mg/ml.
The solubility in water of the salts was measured using a gravimetric solubility protocol. Thus, 1 ml of water was charged into crystallisation tubes. The solid was weighed into a tared glass vial, added in portions to the solutions and the vial weighed after each addition until a hazy solution was observed. The amount in mg was then calculated to give the solubility in mg/mL.

Data set [2] has as its target T1, PLK4 catalytic domain (Homo sapiens, UniProt O00444).
T1 construct: purchased DiscoverX; host or cells: T7 phage in E. coli (BL21-derived) or HEK-293
The data set is described as follows: DiscoverX KinomeScreen competition binding assay, PLK4. The note with it: read-out: % Ctrl @ 3 μM. As for the experimental part: Atropisomer A-2 has been tested for off-target activity against a panel of ninety-seven kinases distributed across the kinome at a concentration of 3 μM using the DiscoverX KinomeScreen assay. The DiscoverX KinomeScreen assay is a site-directed competition binding assay which measures the binding affinity of a compound to a kinase, by use of a solid supported control compound which can bind or capture the kinases in solution. In the absence of a kinase-inhibitor test compound, all of the kinase will bind to the solid support. If a kinase-inhibitor test compound is added to the assay mix, the amount of kinase binding to the solid support will be reduced, the extent of reduction being dependent on the potency of the test compound as a kinase inhibitor. […] For most assays, kinase-tagged T7 phage strains were grown in parallel in 24-well blocks in an E. coli host derived from the BL21 strain. […] The kinase concentration in the eluates was measured by qPCR. […] The strength of binding of the test molecule to the kinase can be expressed as the percent control (% Ctrl) The compound(s) were screened at 3000 nM concentration, and results for primary screen binding interactions are reported as ‘% Ctrl’, where lower numbers indicate stronger hits in the matrix on the following page(s). […]

The nature of data set [3]: Mouse PK, plasma after i.v. and p.o. dosing (oral bioavailability). The class given is in vivo, Male CD-1 mice. The note with it: for half-life: read-out: T ½ (converted). As for the experimental part:
(§1) Atropisomers A-2 and A-3 were evaluated in an in vivo mouse model to determine brain and plasma concentrations following p.o. and i.v. dosing.
(§2) Male CD-1 mice were dosed with the compounds of Examples A-2 and A-3, either by i.v. administration (2 mg/kg) or by p.o. administration (10 mg/kg). Eight samples were taken for analysis in the i.v. leg at 2, 10, 30 min, 1, 2, 4, 8, and 24 (for i.v) and 9 samples in the p.o. leg at 15, 30 min, 1, 2, 4, 8, 24, 48 and 72 hrs.
(§3) The compounds of Examples A-2 and A-3 were both formulated in 10% DMSO/90% hydroxypropyl-beta-cyclodextrin (20% w/v in water) for i.v. and p.o. dosing. N =3 mice per time point.
(§4) Post dosing, terminal blood samples were taken from individual animals and delivered into labelled polypropylene tubes containing anticoagulant (EDTA). The samples were held on wet ice for a maximum of 30 min while sampling of all the animals in the cohort was completed. The blood samples were centrifuged for plasma (4° C., 21100 g for 5 min) and the resulting plasma transferred into corresponding labelled tubes. Terminal brains from each PO dosed animal were excised, rinsed with saline and placed into pre-weighed labelled polypropylene tubes and the samples re-weighed prior to storage.
(§5) Quantitative bioanalysis was carried out using liquid chromatography—mass spectroscopy was performed. The results are shown in Tables 14, 15 and 16 below and in FIGS. 12 to 15.

Data set [4] can be described thus: Mouse PK, brain exposure after p.o. dosing. The class given is in vivo, Male CD-1 mice. As to the method: as §1, §2, §3, §4, §5
For data set [5], the system named is U87MG tumours. Nature of the data set: U87MG subcutaneous xenograft model. The note with it: oral 100 mg/kg on days 1, 4 and 7; day 13. Type of data set: in vivo, Male athymic nude mice. As for the experimental part: Male athymic nude mice bearing U87MG tumours were given an oral dose of 100 mg/kg of atropisomer A-2 on days 1, 4 and 7 and the tumour volumes were measured over 20 days. Tumour volumes in a control group of tumour-bearing mice, who had received vehicle only at the same time points were also measured.

Setting [6] is: mouse, 2 mg/kg, 2 mq/Kq IV, male CD-1 mice, plasma.
Where [7] appears, read: mouse, 10 mg/kg, 10 mq/Kq PO, male CD-1 mice, plasma.
[8] abbreviates: mouse, po, brain exposure, p.o. 10 mg/kg, male CD-1 mice.

The values below come from US20220348565A1, “PHARMACEUTICAL COMPOUNDS” (SENTINEL ONCOLOGY LIMITED, priority 2019, published 2022).

T1 sequence (O00444 12-265 limits assumed): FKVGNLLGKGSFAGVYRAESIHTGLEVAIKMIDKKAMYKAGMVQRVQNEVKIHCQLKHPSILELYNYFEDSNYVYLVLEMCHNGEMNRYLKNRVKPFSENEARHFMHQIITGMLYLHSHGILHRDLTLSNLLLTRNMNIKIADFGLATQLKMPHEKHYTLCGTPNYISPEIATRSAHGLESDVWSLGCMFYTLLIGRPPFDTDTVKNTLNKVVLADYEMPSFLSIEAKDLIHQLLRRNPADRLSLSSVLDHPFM

For orientation: solubility means the dissolved amount per volume that the medium holds. A word on the AUC(0-inf): it is the area under the concentration-time curve extrapolated to infinity. As usually defined, the Cmax is the highest concentration seen after dosing. As usually defined, the Tmax is the time at which the peak concentration occurs. In data set [1], `CN(C)CCNC(=O)c1ccc(-c2ccc(-c3ccc(Cl)cc3)n2-c2ccccc2C(F)(F)F)cc1` (single isomer, unassigned) [Atropisomer A-2, 4-[5-(4-chlorophenyl)-1-[2-(trifluoromethyl)phenyl]pyrrol-2-yl]-N-[2-(dimethylamino)ethyl]benzamide] had a solubility of less than 5000 µg/mL. The remaining binding at 3 µM in data set [2] stood at 100%. This compound also showed a CI in data set [3] (2 mq/Kq IV, male CD-1 mice, plasma) of 20.5 mL/min/kg. The compound also had a F in data set [3] (10 mq/Kq PO vs 2 mq/Kq IV, male CD-1 mice) of 76%. The AUC(0-inf) in data set [3] (setting [6]) was found to be 1620 ng·h/mL; in data set [3] (setting [7]), 6130 ng·h/mL. The Cmax in data set [3] (setting [6]) worked out at 278 ng/mL; in data set [3] (setting [7]) it was 265 ng/mL; in data set [4] (setting [8]) it was 693 ng/mL. Also, the half-life in data set [3] (setting [6]) is 9 h; in data set [3] (setting [7]), 10.7 h; in data set [4] (mouse, po, brain exposure, p.o. 10 mg/kg, male CD-1 mice, read-out: T ½ (converted)), 12.1 h. In addition, the AUC(0-t) in data set [3] (mouse, po, plasma, p.o. 10 mg/kg, male CD-1 mice, read-out: AUClast plasma) was determined as 6130 ng·h/mL; in data set [4] (mouse, po, brain, p.o. 10 mg/kg, male CD-1 mice, read-out: AUClast brain) it was 20500 ng·h/mL. In data set [3] (oral dosing in mice), the “oral absorption / oral bioavailability (in words)” value was “highly absorbed”. In addition, the Kp in data set [4] (male, CD-1, mouse, brain and plasma, 10 mg/kg, brain:plasma, oral dosing in mice, read-out: AUC B:P ratio) was found to be 3.3. Further, the Tmax in data set [4] (setting [8]) came out at 8 h. For the same compound, the “brain exposure (in words)” value in data set [4] (oral dosing in mice) is “high brain exposure”. In addition, the “tumour volume % T/C” value in data set [5] is listed as 3.85%.
